# Data taken from PubChem BioAssay (NCI).
#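 Values below derive from 48-hour exposures of cells grown in 96-well plates, with endpoints linearly interpolated between the two concentrations bracketing the appropriate inhibition level. At the TGI there is no net growth.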
# What was measured:
# Test in all cases: NCI anticancer screen, dose series, 48 h
# OVCAR-5 ovarian = test system: OVCAR-5 ovarian
# A498 renal = test system: A498 renal
# ACHN renal = test system: ACHN renal
# SK-MEL-2 melanoma = test system: SK-MEL-2 melanoma
# UACC-257 melanoma = test system: UACC-257 melanoma
# OVCAR-8 ovarian = test system: OVCAR-8 ovarian
# CCRF-CEM leukemia = test system: CCRF-CEM leukemia
# RXF 393 renal = test system: RXF 393 renal
# A549 NSCLC = test system: A549 NSCLC
# SN12C renal = test system: SN12C renal
# HL-60(TB) leukemia = test system: HL-60(TB) leukemia
# M19-MEL melanoma = test system: M19-MEL melanoma
# NCI-H226 lung = test system: NCI-H226 lung
# M14 melanoma = test system: M14 melanoma
# SW-620 colon = test system: SW-620 colon
# SNB-78 CNS = test system: SNB-78 CNS
# HT29 colon = test system: HT29 colon
# SNB-75 CNS = test system: SNB-75 CNS
# U251 CNS = test system: U251 CNS
# SK-MEL-28 melanoma = test system: SK-MEL-28 melanoma
# UO-31 renal = test system: UO-31 renal
# HCC-2998 colon = test system: HCC-2998 colon
# OVCAR-4 ovarian = test system: OVCAR-4 ovarian
# SK-OV-3 ovarian = test system: SK-OV-3 ovarian
# KM20L2 colon = test system: KM20L2 colon
# DMS 114 small cell lung = test system: DMS 114 small cell lung
# LXFL 529 NSCLC = test system: LXFL 529 NSCLC
# CAKI-1 renal = test system: CAKI-1 renal
# HOP-62 NSCLC = test system: HOP-62 NSCLC
# SF-295 CNS = test system: SF-295 CNS
# SK-MEL-5 melanoma = test system: SK-MEL-5 melanoma
# DLD-1 colon = test system: DLD-1 colon
# TK-10 renal = test system: TK-10 renal
# OVCAR-3 ovarian = test system: OVCAR-3 ovarian
# SF-268 CNS = test system: SF-268 CNS
# SNB-19 CNS = test system: SNB-19 CNS
# LOX IMVI melanoma = test system: LOX IMVI melanoma
# MOLT-4 leukemia = test system: MOLT-4 leukemia
# NCI-H460 lung = test system: NCI-H460 lung
# K-562 leukemia = test system: K-562 leukemia
# 786-0 renal = test system: 786-0 renal
# XF 498 CNS = test system: XF 498 CNS
# COLO 205 colon = test system: COLO 205 colon
# RPMI-8226 leukemia = test system: RPMI-8226 leukemia
# NCI-H522 lung = test system: NCI-H522 lung
# KM12 colon = test system: KM12 colon
# NCI-H23 lung = test system: NCI-H23 lung
# HOP-92 NSCLC = test system: HOP-92 NSCLC
# IGROV1 ovarian = test system: IGROV1 ovarian
# SF-539 CNS = test system: SF-539 CNS
# MALME-3M melanoma = test system: MALME-3M melanoma
# EKVX NSCLC = test system: EKVX NSCLC
# HCT-116 colon = test system: HCT-116 colon
# HCT-15 colon = test system: HCT-15 colon
# UACC-62 melanoma = test system: UACC-62 melanoma
# SR leukemia = test system: SR leukemia
# DMS 273 small cell lung = test system: DMS 273 small cell lung
smiles,measurement,setting,value
CC1=C(C(=O)Nc2cc(F)c(F)cc2F)C(c2ccc3c(c2)OCO3)C(C(=O)Nc2cc(F)c(F)cc2F)=C(C)N1,TGI,OVCAR-5 ovarian,59.9 µM
same,TGI,A498 renal,65.2 µM
same,TGI,ACHN renal,60.6 µM
same,TGI,SK-MEL-2 melanoma,46.7 µM
same,TGI,UACC-257 melanoma,71.5 µM
same,TGI,OVCAR-8 ovarian,> 100 µM
same,TGI,CCRF-CEM leukemia,55.1 µM
same,TGI,RXF 393 renal,35.6 µM
same,TGI,A549 NSCLC,79.1 µM
same,TGI,SN12C renal,72.7 µM
same,TGI,HL-60(TB) leukemia,36 µM
same,TGI,M19-MEL melanoma,67 µM
same,TGI,NCI-H226 lung,85.3 µM
same,TGI,M14 melanoma,> 100 µM
same,TGI,SW-620 colon,> 100 µM
same,TGI,SNB-78 CNS,62.9 µM
same,TGI,HT29 colon,61.4 µM
same,TGI,SNB-75 CNS,45.4 µM
same,TGI,U251 CNS,> 100 µM
same,TGI,SK-MEL-28 melanoma,> 100 µM
same,TGI,UO-31 renal,40.8 µM
same,TGI,HCC-2998 colon,39 µM
same,TGI,OVCAR-4 ovarian,77.7 µM
same,TGI,SK-OV-3 ovarian,65.3 µM
same,TGI,KM20L2 colon,62.5 µM
same,TGI,DMS 114 small cell lung,52.1 µM
same,TGI,LXFL 529 NSCLC,80.4 µM
same,TGI,CAKI-1 renal,43.5 µM
same,TGI,HOP-62 NSCLC,65.1 µM
same,TGI,SF-295 CNS,48.9 µM
same,TGI,SK-MEL-5 melanoma,52.6 µM
same,TGI,DLD-1 colon,75.1 µM
same,TGI,TK-10 renal,64.8 µM
same,TGI,OVCAR-3 ovarian,40.6 µM
same,TGI,SF-268 CNS,> 100 µM
same,TGI,SNB-19 CNS,> 100 µM
same,TGI,LOX IMVI melanoma,35.3 µM
same,TGI,MOLT-4 leukemia,46.5 µM
same,TGI,NCI-H460 lung,78.7 µM
same,TGI,K-562 leukemia,53.8 µM
same,TGI,786-0 renal,42.9 µM
same,TGI,XF 498 CNS,26.8 µM
same,TGI,COLO 205 colon,53.6 µM
same,TGI,RPMI-8226 leukemia,52.9 µM
same,TGI,NCI-H522 lung,41.6 µM
same,TGI,KM12 colon,46 µM
same,TGI,NCI-H23 lung,71.1 µM
same,TGI,HOP-92 NSCLC,25 µM
same,TGI,IGROV1 ovarian,> 100 µM
same,TGI,SF-539 CNS,87 µM
same,TGI,MALME-3M melanoma,69.4 µM
same,TGI,EKVX NSCLC,73.1 µM
COC(=O)c1nn(-c2ccccc2)c(=O)cc1N=[N+]=[N-],TGI,OVCAR-5 ovarian,> 100 µM
same,TGI,A498 renal,> 100 µM
same,TGI,ACHN renal,> 100 µM
same,TGI,HCT-116 colon,> 100 µM
same,TGI,UACC-257 melanoma,> 100 µM
same,TGI,OVCAR-8 ovarian,> 100 µM
same,TGI,CCRF-CEM leukemia,> 100 µM
same,TGI,RXF 393 renal,> 100 µM
same,TGI,A549 NSCLC,> 100 µM
same,TGI,SN12C renal,> 100 µM
same,TGI,HL-60(TB) leukemia,> 100 µM
same,TGI,HCT-15 colon,> 100 µM
same,TGI,M19-MEL melanoma,> 100 µM
same,TGI,NCI-H226 lung,> 100 µM
same,TGI,M14 melanoma,> 100 µM
same,TGI,SW-620 colon,> 100 µM
same,TGI,SNB-78 CNS,> 100 µM
same,TGI,HT29 colon,> 100 µM
same,TGI,U251 CNS,> 100 µM
same,TGI,SK-MEL-28 melanoma,> 100 µM
same,TGI,UO-31 renal,> 100 µM
same,TGI,HCC-2998 colon,> 100 µM
same,TGI,OVCAR-4 ovarian,> 100 µM
same,TGI,SK-OV-3 ovarian,> 100 µM
same,TGI,KM20L2 colon,> 100 µM
same,TGI,DMS 114 small cell lung,> 100 µM
same,TGI,UACC-62 melanoma,> 100 µM
same,TGI,SR leukemia,> 100 µM
same,TGI,LXFL 529 NSCLC,> 100 µM
same,TGI,CAKI-1 renal,> 100 µM
same,TGI,HOP-62 NSCLC,> 100 µM
same,TGI,SF-295 CNS,> 100 µM
same,TGI,SK-MEL-5 melanoma,> 100 µM
same,TGI,TK-10 renal,> 100 µM
same,TGI,OVCAR-3 ovarian,> 100 µM
same,TGI,DMS 273 small cell lung,> 100 µM
same,TGI,SF-268 CNS,> 100 µM
same,TGI,SNB-19 CNS,> 100 µM
same,TGI,LOX IMVI melanoma,> 100 µM
same,TGI,MOLT-4 leukemia,> 100 µM
same,TGI,NCI-H460 lung,> 100 µM
same,TGI,K-562 leukemia,> 100 µM
same,TGI,786-0 renal,> 100 µM
same,TGI,XF 498 CNS,> 100 µM
same,TGI,COLO 205 colon,> 100 µM
same,TGI,RPMI-8226 leukemia,> 100 µM
same,TGI,NCI-H522 lung,> 100 µM
same,TGI,KM12 colon,> 100 µM
same,TGI,NCI-H23 lung,> 100 µM
same,TGI,IGROV1 ovarian,> 100 µM
same,TGI,SF-539 CNS,> 100 µM
same,TGI,MALME-3M melanoma,> 100 µM
same,TGI,EKVX NSCLC,> 100 µM
N#Cc1c2nc3ccccc3nc2n2ccccc12,TGI,OVCAR-5 ovarian,> 100 µM
same,TGI,A498 renal,> 100 µM
same,TGI,ACHN renal,> 100 µM
same,TGI,SK-MEL-2 melanoma,> 100 µM
same,TGI,HCT-116 colon,> 100 µM
same,TGI,UACC-257 melanoma,> 100 µM
same,TGI,OVCAR-8 ovarian,> 100 µM
same,TGI,CCRF-CEM leukemia,> 100 µM
same,TGI,A549 NSCLC,> 100 µM
same,TGI,SN12C renal,> 100 µM
same,TGI,HL-60(TB) leukemia,> 100 µM
same,TGI,HCT-15 colon,> 100 µM
same,TGI,M19-MEL melanoma,> 100 µM
same,TGI,M14 melanoma,> 100 µM
same,TGI,SW-620 colon,> 100 µM
same,TGI,SNB-78 CNS,> 100 µM
same,TGI,SNB-75 CNS,> 100 µM
same,TGI,U251 CNS,> 100 µM
same,TGI,SK-MEL-28 melanoma,> 100 µM
same,TGI,UO-31 renal,> 100 µM
same,TGI,HCC-2998 colon,> 100 µM
same,TGI,OVCAR-4 ovarian,> 100 µM
same,TGI,SK-OV-3 ovarian,> 100 µM
same,TGI,KM20L2 colon,> 100 µM
same,TGI,DMS 114 small cell lung,> 100 µM
same,TGI,UACC-62 melanoma,> 100 µM
same,TGI,SR leukemia,> 100 µM
same,TGI,LXFL 529 NSCLC,> 100 µM
same,TGI,CAKI-1 renal,> 100 µM
same,TGI,HOP-62 NSCLC,> 100 µM
same,TGI,SK-MEL-5 melanoma,> 100 µM
same,TGI,DLD-1 colon,> 100 µM
same,TGI,TK-10 renal,> 100 µM
same,TGI,OVCAR-3 ovarian,> 100 µM
same,TGI,DMS 273 small cell lung,> 100 µM
same,TGI,SF-268 CNS,> 100 µM
same,TGI,SNB-19 CNS,> 100 µM
same,TGI,LOX IMVI melanoma,> 100 µM
same,TGI,MOLT-4 leukemia,> 100 µM
same,TGI,NCI-H460 lung,> 100 µM
same,TGI,K-562 leukemia,> 100 µM
same,TGI,786-0 renal,> 100 µM
same,TGI,XF 498 CNS,> 100 µM
same,TGI,COLO 205 colon,> 100 µM
same,TGI,RPMI-8226 leukemia,> 100 µM
same,TGI,NCI-H522 lung,> 100 µM
same,TGI,KM12 colon,> 100 µM
same,TGI,NCI-H23 lung,> 100 µM
same,TGI,IGROV1 ovarian,> 100 µM
same,TGI,SF-539 CNS,> 100 µM
same,TGI,MALME-3M melanoma,> 100 µM
same,TGI,EKVX NSCLC,> 100 µM
